Like-named read-outs stand apart in the source and are kept apart here.
Assays:
HCC827 cells [1] = assay: Cell counting by nuclear fluorescent staining (Hoechst33342); format: cell-based; settings: for Effect on cell proliferation as single agent: absence of EGFR inhibitor (FIG. 3 left); for Anti-proliferative activity / re-growth in presence of Gefitinib: in presence of 300 nM Gefitinib (FIG. 3)
Method: Several plates were seeded, as for each time point of cell counting one plate was fixed and stained for analysis. […] Cell cultivation was continued until time of fixation and analysis for each plate. For extended time-points, medium and drugs were replenished twice weekly.
At the given time plates were washed 3 times with PBS and cells fixed with 80 μl 4% PFA for 10 min, RT. After 3 wash steps with PBS cells were stained with 10 μg/ml Hoechst33342 (Thermo Scientific H12492) in 100 μl PBS for 2 h, RT, dark. After 3× PBS washing-steps, Hoechst33342 signals were acquired on in an automated imaging mode using a Zeiss Apotome with motorized X/Y stage and a 5× objective. Image analysis and determination of Hoechst33342 spots (nuclei) was done using ImageJ. Number of nuclei was plotted as function of time using GraphPad Prism.

NCI-H1975 cells [2] = assay: Gene expression analysis (qPCR of ALPP and HOPX); format: cell-based; settings: 24 h; for EGFR inhibitor induced gene expression (ALPP, HOPX): NCI-H1975, 1 μM CBP/p300 inhibitor in presence of 20 nM osimertinib
Method: (§1) Equal amount of cDNA was then subjected to qPCR analysis using the Kapa SYBR fast kit (KK4611) in a 384 well format in a Roche Light Cycler 480. Gene expression of genes was evaluated by subtraction of housekeeping gene CT-values (b-Actin) from CT of the genes of interest, and by calculating the ΔΔCT by subtracting the DMSO control value from sample of interest to finally calculate fold change differences of treated versus control treated sample.
(§2) Data is from 2 independent experiments with qPCRs in duplicate (mean±SEM) (FIG. 1C-D).

HCC827 cells [3] = assay: Gene expression analysis (qPCR of ALPP and HOPX); format: cell-based; settings: HCC827, 1 μM CBP/p300 inhibitor in presence of Gefitinib, 24 h
Method: as §1, §2

NCI-H1975 cells [4] = assay: Label-free determination of cell proliferation (CELIGO); format: cell-based
HCC827 cells [5] = assay: as above; format: cell-based; settings: for Development of drug resistance / re-growth: HCC827, combined with 100 nM osimertinib; for Development of drug resistance / re-growth / Effect on cell proliferation on their own: 21 days (FIG. 9); for Effect on cell proliferation on their own: HCC827, single agent (1 μM Compound A, 0.2 μM Compound C, 0.2 μM CCS1477, 1 μM FT-6876, 0.2 μM GNE-781)
HCC4006 cells = assay: as above; settings: for Development of drug resistance / re-growth: HCC4006, combined with 100 nM osimertinib; for Development of drug resistance / re-growth / Effect on cell proliferation on their own: 21 days (FIG. 10); for Effect on cell proliferation on their own: HCC4006, single agent (1 μM Compound A, 0.2 μM Compound C, 0.2 μM CCS1477, 1 μM FT-6876, 0.2 μM GNE-781)
Method: 2000 HCC4006 (ATCC; CRL2871) were seeded into 96 well plates (Greiner BioOne 655090) one day prior to drug treatment in RPMI medium containing 10% FCS and 2 mM L-Glutamine. The next day wells were imaged label-free using brightfield imaging on a CELIGO Image Cytometer to determine the initial cell number. Subsequently cells were treated with either DMSO, with single drugs (osimertinib and each of the CBP/p300 bromodomain inhibitors) or drug combinations of 100 nM osimertinib and one CBP/p300 bromodomain inhibitor with drug concentrations given below. Plates were regularly imaged over weeks using brightfield mode (CELIGO Imaging Cytometer) to track cell proliferation in each well over time. Growth medium and treatments were replenished twice weekly. […] Cell numbers were determined using CELIGO software's built-in “direct cell counting” analysis tool in the brightfield mode.

NCI-H1975 xenografts = assay: NCI-H1975 xenograft tumor growth; format: in vivo, NMRI-Nude mice; settings: 2 mg/kg osimertinib alone
Method: Tumor volume was measured using a manual caliper two to three times a week. The tumor volume was calculated using the formula: lager tumor diameter x square of the smaller tumor diameter divided by 2. Based on a linear fit of the mean tumor volumes the slopes of the curves were compared by regression analysis (two-tailed).
(§3) The response was determined by comparing tumor volume change at time t to its baseline: % tumor volume change=ΔVolt=100%×((Vt−Vinitial)/Vinitial). The Best Response was the minimum value of ΔVolt for t≥10 d. For each time t, the average of ΔVolt from t=0 to t was also calculated. The BestAvgResponse is defined as the minimum value of this average for t≥10 d. This metric captures a combination of speed, strength and durability of response into a single value. […] Mice that were sacrificed because of an adverse event before they had completed 14 d on trial were removed from the data set.
as §3, with “ΔVolt for t≥6 d. For” for “ΔVolt for t≥10 d. For”

[6] = NCI-H1975, 50 nM osimertinib alone (FIG. 5)

Compound: CC(=O)N1C[C@H](c2nc(Nc3ccc4[nH]ncc4c3)cc(-c3cccnc3)n2)CC[C@@H]1C [Compound 00030]
- Effect on cell proliferation as single agent (HCC827 cells [1]): absence of an anti-proliferative effect
- Anti-proliferative activity / re-growth in presence of Gefitinib (HCC827 cells [1]): potentiate the effect of the EGFR inhibitor

Compound: CNC(=O)Nc1ccc2c(c1)CC[C@@]21OC(=O)N(CC(=O)N(Cc2ccc(F)cc2)[C@@H](C)C(F)(F)F)C1=O [Compound A-485]
- EGFR inhibitor induced gene expression (ALPP, HOPX) (NCI-H1975 cells [2]): reverse EGFR inhibitor induced gene expression
- EGFR inhibitor induced gene expression (ALPP, HOPX) (HCC827 cells [3]): reverse EGFR inhibitor induced gene expression
- Effect on cell proliferation as single agent (HCC827 cells [1]): affect cell proliferation

Compound: COc1cncc(-c2cc(Nc3cccc(F)c3)nc([C@@H]3CC[C@H](C)N(C(C)=O)C3)n2)c1 [Compound A]
- EGFR inhibitor induced gene expression (ALPP, HOPX) (NCI-H1975 cells [2]): reverse EGFR inhibitor induced gene expression
- EGFR inhibitor induced gene expression (ALPP, HOPX) (HCC827 cells [3]): reverse EGFR inhibitor induced gene expression
- Re-growth under continuous Gefitinib exposure (HCC827 cells [1]; in combination with 20 nM Gefitinib (FIG. 2A)): Re-growth is inhibited
- Anti-proliferative activity / re-growth in presence of Gefitinib (HCC827 cells [1]): potentiate the effect of the EGFR inhibitor
- Growth long-term (NCI-H1975 cells [4]; NCI-H1975, 50 nM osimertinib with 2.0, 0.5 or 0.125 μM co-treatment (FIG. 5)): delayed
- Effect on cell numbers on their own (NCI-H1975 cells [4]; NCI-H1975, 2 μM single agent (FIG. 5)): no/weak effect on cell numbers
- Re-growth in long-term cultures (HCC827 cells [5]; HCC827, 300 nM Gefitinib + 1 μM Compound A, >22 days (FIG. 4)): significantly delays or completely prevents re-grow
- Effect on cell numbers on its own (HCC827 cells [5]; HCC827, 1 μM Compound A alone (FIG. 4)): weak/no effect on cell numbers
- Development of drug resistance / re-growth (HCC827 cells [5]): prevent the development of drug resistance

Compound: COC(=O)N1c2ccc3c(nc(Cc4ccccc4)n3[C@H]3CCC[C@H](C(=O)O)C3)c2CC[C@@H]1C [FT-6876]
- Development of drug resistance / re-growth (HCC4006 cells): prevent the development of drug resistance
- Effect on cell proliferation on their own (HCC4006 cells): do not affect cell proliferation
- Development of drug resistance / re-growth (HCC827 cells [5]): prevent the development of drug resistance
- Effect on cell proliferation on their own (HCC827 cells [5]): do not affect cell proliferation

Compound: CNC(=O)N1CCc2c(c(N3CCCc4cc(-c5cnn(C)c5)c(C(F)F)cc43)nn2C2CCOCC2)C1 [GNE-781]
- Development of drug resistance / re-growth (HCC4006 cells): prevent the development of drug resistance
- Effect on cell proliferation on their own (HCC4006 cells): do not affect cell proliferation
- Development of drug resistance / re-growth (HCC827 cells [5]): prevent the development of drug resistance
- Effect on cell proliferation on their own (HCC827 cells [5]): do not affect cell proliferation

Compound: COc1cc2ncnc(Nc3ccc(F)c(Cl)c3)c2cc1OCCCN1CCOCC1 [Gefitinib]
- Cell proliferation, initial (HCC4006 cells; HCC4006, 300 nM Gefitinib alone (FIG. 8)): initially completely blocks cell proliferation
- Re-growth in long-term cultures (HCC4006 cells; HCC4006, 300 nM Gefitinib only (FIG. 8)): HCC4006 cells re-grow if treated with Gefitinib only

Compound: O=C1[C@H](Cc2ccc(O)cc2)N2C(=O)CCN(C(=O)NCc3ccccc3)[C@H]2CN1Cc1cccc2ccccc12 [ICG-001]
- EGFR inhibitor induced gene expression (ALPP, HOPX) (NCI-H1975 cells [2]): does not blunt EGFR-induced gene expression
- EGFR inhibitor induced gene expression (ALPP, HOPX) (HCC827 cells [3]): does not blunt EGFR-induced gene expression

Compound: COc1ccc(CCc2nc3cc(-c4c(C)noc4C)ccc3n2C[C@H](C)N2CCOCC2)cc1Cl [SGC-CBP30]
- Effect on cell proliferation as single agent (HCC827 cells [1]): do not affect cell proliferation
- Anti-proliferative activity / re-growth in presence of Gefitinib (HCC827 cells [1]): potentiate the effect of the EGFR inhibitor

Compound: C=CC(=O)Nc1cc(Nc2nccc(-c3cn(C)c4ccccc34)n2)c(OC)cc1N(C)CCN(C)C [osimertinib]
- ALPP and HOPX gene expression (NCI-H1975 cells [2]; NCI-H1975, EGFR inhibitor (20 nM osimertinib) alone): upregulation of example genes ALPP and HOPX
- Cell proliferation, initial (HCC4006 cells; HCC4006, 100 nM osimertinib alone (FIG. 10)): initially blocks cell proliferation
- Re-growth in long-term cultures (HCC4006 cells; HCC4006, 100 nM osimertinib only (FIG. 10)): HCC4006 cells re-grow if treated with osimertinib only
- Slope of linear regression fit of mean tumor volumes over time (NCI-H1975 xenografts): +6.4
- Cell proliferation, initial (NCI-H1975 cells [4]; [6]): initially blocks cell proliferation
- Growth long-term (NCI-H1975 cells [4]; [6]): cells continue growing with a slow rate
- Cell proliferation, initial (HCC827 cells [5]): initially blocks cell proliferation
- Re-growth in long-term cultures (HCC827 cells [5]): HCC827 cells re-grow if treated with osimertinib only
